Experimental findings from patent US10822331B2, “Processes for preparing ATR inhibitors” (Vertex Pharmaceuticals Incorporated, priority 2011, dated 2020) are described below.

This test relates to HCT116 colorectal cancer cells. The experiment in a line: Cisplatin sensitization assay (96 h MTS cell viability). The settings on record: concentration of compound required to reduce the IC50 of Cisplatin alone by at least 3-fold, HCT116, 96 h. It is filed as cell-based. The protocol:
Compounds can be screened for their ability to sensitize HCT116 colorectal cancer cells to Cisplatin using a 96 h cell viability (MTS) assay. […] Compounds and Cisplatin are then both added simultaneously to the cell media in 2-fold serial dilutions from a top final concentration of […] as a full matrix of concentrations in a final cell volume of 200 μl, and the cells are then incubated at 37° C. in 5% CO2. After 96 h, 40 μl of MTS reagent (Promega G358a) is added to each well and the cells are incubated for 1 h at 37° C. in 5% CO2.
In the case of `[2H]C([2H])(NC)c1ccc(-c2cc(-c3nc(-c4ccc(S(=O)(=O)C(C)C)cc4)cnc3N)on2)cc1` [II-1, 3-[3-[4-[dideuterio(methylamino)methyl]phenyl]isoxazol-5-yl]-5-(4-isopropylsulfonylphenyl)pyrazin-2-amine], the Cisplatin sensitization is 39 nM. As for `[2H]C([2H])([2H])NC([2H])([2H])c1ccc(-c2cc(-c3nc(-c4ccc(S(=O)(=O)C(C)C)cc4)cnc3N)on2)cc1` [II-2, 3-[3-[4-[dideuterio-(trideuteriomethylamino)methyl]phenyl]isoxazol-5-yl]-5-(4-isopropylsulfonylphenyl)pyrazin-2-amine], the figure is 29 nM. As for `[2H]C([2H])([2H])NCc1ccc(-c2cc(-c3nc(-c4ccc(S(=O)(=O)C(C)C)cc4)cnc3N)on2)cc1` [II-3, 5-(4-isopropylsulfonylphenyl)-3-[3-[4-[(trideuteriomethylamino)methyl]phenyl]isoxazol-5-yl]pyrazin-2-amine], the figure is 39 nM.
